Reference: patent US5662929A, “Therapeutic liposomal formulation” (Universite de Montreal, priority 1994, dated 1997)

Assays:
P. aeruginosa = test: Bactericidal effect in infected rat lung tissues, second experiment (Table 4); assay type: in vivo, P. aeruginosa in Sprague-Dawley rats; conditions: two doses of 240 ug
From the text: To evaluate the bactericidal efficacy of a liposomal aminoglycoside formulation produced according to the present invention, male, pathogen-free, Sprague-Dawley rats weighing 175 to 225 g (Charles River) were used. Chronic infection in lungs was established by intratracheal administration of 5×10^5 CFU of Pseudomonas aeruginosa PA 508 (mucoid phenotype) prepared in agar beads. It is to be pointed out that this rat model for chronic pulmonary infection is widely recognized as the most appropriate animal model for chronic pulmonary infections in human CF patients. […] The lipid mixture were DPPC:DMPG at a molar ratio of 10:1 (formula no 1) and DPPC:DMPC at a molar ratio of 15:1 (formula no 2). Sixteen hours after the last treatment, the animals were sacrificed and the entire lungs were removed aseptically, weighed and homogenized as described previously for mice. Serial 10-fold dilutions of the homogenates in cold PBS were made and spread in triplicate on proteose peptone agar plates. Identification of P. aeruginosa was confirmed by specific cultures. CFU were counted after 24-h incubations at 37° C. under 5% CO^2. Counts were expressed in log CFU per pair of lungs. PBS and PBS-liposomes were used as controls. […]

[1] = test system: Pseudomonas aeruginosa PA 508 (mucoid phenotype); test: Bactericidal effect in chronic pulmonary infection, rat (Table 3 experiment); assay type: in vivo, P. aeruginosa in Sprague-Dawley rats
Description: Different liposomal formulations were prepared according to Example 1 and analyzed by differential scan colorimetry. Using differential scan calorimetry, the temperatures of phase transition (Tc) were calculated for the tobramycin-liposomal formulations listed in Table 1. All these formulations were then tested in vitro to assess the antibiotic kinetics of liberation from the liposomes. In addition, these formulations were tested in a non-infected mouse model as previously described (Omri et al. 1994, Antimicrob. Agents Chemother. 38:1090-1095) to assess the persistence of the liposomes in the lung. Only the DPPC/DMPG 10:1, 15:1 and DSPC. […] These liposomal formulations were further tested in animal model of chronic pulmonary infection to examine their antibacterial efficacy. […] Of note, the addition of cholesterol to the formulation described in Table 1 brought the Tc to a minimum value of 60° C. Such formulations were incompatible with modulation of gradual antibiotic liberation and suitable interactions with bacteria. Thus, in order to maintain the desired characteristic of the liposome formulation, a low rigidity of the liposomes seems required. This low rigidity can be achieved by maintaining a low temperature of phase transition (below the body temperature of the animal to which the formulation is to be administered) and avoiding the use of cholesterol in the formulation.
To evaluate the bactericidal efficacy of a liposomal aminoglycoside formulation produced according to the present invention, male, pathogen-free, Sprague-Dawley rats weighing 175 to 225 g (Charles River) were used. Chronic infection in lungs was established by intratracheal administration of 5×10^5 CFU of Pseudomonas aeruginosa PA 508 (mucoid phenotype) prepared in agar beads. It is to be pointed out that this rat model for chronic pulmonary infection is widely recognized as the most appropriate animal model for chronic pulmonary infections in human CF patients. After 3 days, three doses (600 ug) of free or liposome-encapsulated tobramycin were given intratracheally at intervals of 16 h. The lipid mixture were DPPC:DMPG at a molar ratio of 10:1 (formula no 1) and DPPC:DMPC at a molar ratio of 15:1 (formula no 2). Sixteen hours after the last treatment, the animals were sacrificed and the entire lungs were removed aseptically, weighed and homogenized as described previously for mice. Serial 10-fold dilutions of the homogenates in cold PBS were made and spread in triplicate on proteose peptone agar plates. Identification of P. aeruginosa was confirmed by specific cultures. CFU were counted after 24-h incubations at 37° C. under 5% CO^2. Counts were expressed in log CFU per pair of lungs. PBS and PBS-liposomes were used as controls.

[2] = Pulmonary retention / tobramycin levels after intratracheal administration in non-infected mice; assay type: in vivo, BALB/c mice; conditions: 200 ug intratracheal, HPLC
Description: Using differential scan calorimetry, the temperatures of phase transition (Tc) were calculated for the tobramycin-liposomal formulations listed in Table 1. All these formulations were then tested in vitro to assess the antibiotic kinetics of liberation from the liposomes. […] These liposomal formulations were further tested in animal model of chronic pulmonary infection to examine their antibacterial efficacy.
Lungs and kidneys were removed aseptically, weighed, and then homogenized in cold sterile PBS (40% [wt/vol]) for 30 s with a Polytron homogenizer. Tobramycin levels in both homogenized tissues and sera were measured by HPLC. Groups of three mice were used for each time value.

NC[C@H]1O[C@H](O[C@H]2[C@H](O)[C@@H](O[C@H]3O[C@H](CO)[C@@H](O)[C@H](N)[C@H]3O)[C@H](N)C[C@@H]2N)[C@H](N)C[C@@H]1O [free tobramycin, tobramycin]
cfu/pair of lungs (P. aeruginosa): 1.07 × 10^6 cfu/pair of lungs | log cfu/pair of lungs (P. aeruginosa): 6.03 log cfu/pair of lungs | bacteria enumerated ([1]; free antibiotic, see below): 10^7 c.f.u. | antibacterial efficacy in chronic pulmonary infection model (in words) ([1]; rat, compared with free antibiotic): no or little bactericidal activity | log cfu/pair of lungs ([1]; three doses (600 ug) intratracheally at 16 h intervals, 16 h after last treatment): 7.10 log cfu/pair of lungs | cfu/pair of lungs ([1]; three doses (600 ug) intratracheally at 16 h intervals, 16 h after last treatment, cfu counts < 30 not statistically significant): 1.25 × 10^7 cfu/pair of lungs | Conc in lungs ([2]; 0.25 h): 43 ug/pair of lungs | Conc in kidneys ([2]; 1 h): 25 ug/pair of kidneys | Conc in lungs ([2]; 1 h): 11 ug/pair of lungs
